These results are taken from US20110034526A1, “Benzimidazole Compounds” (Wyeth LLC, priority 2007, published 2011).

Assay [1] deals with T1, human LXRβ (Homo sapiens, UniProt P55055).
T1 construct: biotin (biotinylated); made in house; host or cells: E. coli (crude extract)
T1 sequence (P55055 1-460): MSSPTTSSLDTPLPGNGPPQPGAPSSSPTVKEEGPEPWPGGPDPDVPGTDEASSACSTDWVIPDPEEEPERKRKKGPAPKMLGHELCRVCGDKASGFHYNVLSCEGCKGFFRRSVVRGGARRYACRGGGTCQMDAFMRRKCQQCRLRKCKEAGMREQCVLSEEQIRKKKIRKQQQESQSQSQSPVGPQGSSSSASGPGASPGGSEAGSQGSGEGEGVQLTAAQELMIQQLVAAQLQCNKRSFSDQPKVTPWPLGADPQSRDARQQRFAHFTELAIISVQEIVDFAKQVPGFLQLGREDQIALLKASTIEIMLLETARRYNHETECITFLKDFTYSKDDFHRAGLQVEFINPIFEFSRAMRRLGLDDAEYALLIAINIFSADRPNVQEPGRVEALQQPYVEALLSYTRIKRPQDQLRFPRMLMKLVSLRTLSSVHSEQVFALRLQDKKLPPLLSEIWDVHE
In words: Ligand-binding test procedure for human LXRβ (3H T0901317 tracer, flash plates). The protocol: Receptor source: E. coli extracted from cells expressing biotinylated hLXRβ. Extract was made in a similar buffer as above, but with 50 mM TRIS.
Washed streptavidin and coated flash plates with wash buffer. Diluted receptor extract to give Bmax ˜4000 cpm and add to the wells. Wrapped the plates in aluminum foil and stored them at +4° C. overnight.
(§1) Made a dilution series in DMSO of the test ligands. Made a 5 nM solution of the radioactive tracer in buffer. Mixed 250 μl diluted tracer with 5 μl of the test ligand from each concentration of the dilution series. Washed the receptor-coated flash plates. Added 200 μl per well of the ligand/radiolabel mixture to the receptor-coated flash plates. Wrapped the plates in aluminum foil and incubate at +4° C. over night.
Aspirated wells, and washed the flashed plates. Sealed the plate. Measured the remaining radioactivity in the plate.

Assay [2] concerns the target T2, human LXRα (Homo sapiens, UniProt Q13133).
T2 construct: biotin (biotinylated); made in house; host or cells: E. coli (crude extract)
T2 sequence (Q13133 1-447): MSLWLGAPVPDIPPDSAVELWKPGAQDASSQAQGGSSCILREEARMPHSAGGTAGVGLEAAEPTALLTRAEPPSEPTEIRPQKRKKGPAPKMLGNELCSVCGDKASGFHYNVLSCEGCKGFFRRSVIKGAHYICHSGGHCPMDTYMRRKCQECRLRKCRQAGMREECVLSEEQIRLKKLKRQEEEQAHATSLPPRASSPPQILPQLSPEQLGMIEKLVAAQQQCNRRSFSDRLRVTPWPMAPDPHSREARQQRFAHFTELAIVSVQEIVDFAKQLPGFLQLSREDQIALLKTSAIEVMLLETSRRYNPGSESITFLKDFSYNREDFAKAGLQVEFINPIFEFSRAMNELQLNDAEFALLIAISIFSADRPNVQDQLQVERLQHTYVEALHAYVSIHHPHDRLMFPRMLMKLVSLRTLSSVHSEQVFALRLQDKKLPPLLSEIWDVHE
In words: Ligand-binding test procedure for human LXRα (3H T0901317 tracer, flash plates). As to conditions: biotinylated hLXRα, tracer 3H T0901317. The protocol:
Receptor source: E. coli extract from cells expressing biotinylated hLXRcc. Extract was made in a similar buffer as above, but with 50 mM TRIS.
Washed streptavidin and coated flash plates with wash buffer. Diluted receptor extract to give Bmax ˜4000 cpm and add to the wells. Wrapped the plates in aluminum foil and stored them at +4° C. over night.
as §1
Aspirated wells, and wash the flashed plates. Sealed the plate. Measured the remaining radioactivity in the plate.

Structures are written as SMILES.

For the compound `Cc1nc2c(C(F)(F)F)cccc2n1-c1cccc(Oc2cccc(S(=O)(=O)CCC(C)(C)O)c2)c1` [Example 11, 2-methyl-4-[(3-{3-[2-methyl-4-(trifluoromethyl)-1H-benzimidazol-1-yl]phenoxy}-phenyl)sulfonyl]butan-2-ol], the half-inhibitory concentration (IC50) was found to be 290 nM in assay [1] and 7000 nM in assay [2].
For `Cc1nc2c(C(F)(F)F)cccc2n1-c1cccc(Oc2ccccc2S(C)(=O)=O)c1` [Example 12, 2-methyl-1-{3-[2-(methylsulfonyl)phenoxy]phenyl}-4-(trifluoromethyl)-1H-benzimidazole], the 50% inhibitory concentration (IC50) in assay [1] and in assay [2] was above 1000 nM in each case.
In the case of `Cc1nc2c(C(F)(F)F)cccc2n1-c1cccc(Oc2ccccc2S(=O)(=O)CCCO)c1` [Example 13, 3-[(2-{3-[2-methyl-4-(trifluoromethyl)-1H-benzimidazol-1-yl]phenoxy}phenyl)sulfonyl]propan-1-ol], the IC50 in assay [1] is 1900 nM; in assay [2], above 1000 nM.
With `Cc1nc2c(C(F)(F)F)cccc2n1-c1cccc(Oc2ccc(S(C)(=O)=O)cc2)c1` [Example 14, 2-methyl-1-{3-[4-(methylsulfonyl)phenoxy]phenyl}-4-(trifluoromethyl)-1H-benzimidazole], the half-maximal inhibitory concentration (IC50) amounted to 435 nM in assay [1] and 2950 nM in assay [2].
For `Cc1nc2c(C(F)(F)F)cccc2n1-c1cccc(Oc2ccc(S(=O)(=O)CCCO)cc2)c1` [Example 15, 3-[(4-{3-[2-methyl-4-(trifluoromethyl)-1H-benzimidazol-1-yl]phenoxy}phenyl)sulfonyl]propan-1-ol] the same measures were 945 nM and 4840 nM.
Regarding `CCCS(=O)(=O)c1cccc(Oc2cccc(-n3c(C)nc4c(Cl)cccc43)c2)c1` [Example 43, 4-chloro-2-methyl-1-{3-[3-(propylsulfonyl)phenoxy]phenyl}-1H-benzimidazole], the IC50 in assay [1] was 3.7 nM; in assay [2] it was 14 nM.
As to `Cc1nc2c(Cl)cccc2n1-c1cccc(Oc2cc(F)cc(S(C)(=O)=O)c2)c1` [Example 44, 4-chloro-1-{3-[3-fluoro-5-(methylsulfonyl)phenoxy]phenyl}-2-methyl-1H-benzimidazole], the results for the IC50 in assay [1] and in assay [2] were 3.5 nM and 12 nM, respectively.
Turning to `CCS(=O)(=O)c1cc(F)cc(Oc2cccc(-n3c(C)nc4c(Cl)cccc43)c2)c1` [Example 45, 4-chloro-1-{3-[3-(ethylsulfonyl)-5-fluorophenoxy]phenyl}-2-methyl-1H-benzimidazole], the half-inhibitory concentration (IC50) amounted to 6.6 nM in assay [1] and 31 nM in assay [2].
Consider `Cc1nc2c(Cl)cccc2n1-c1cccc(Oc2cc(Cl)cc(S(C)(=O)=O)c2)c1` [Example 46, 4-chloro-1-{3-[3-chloro-5-(methylsulfonyl)phenoxy]phenyl}-2-methyl-1H-benzimidazole], for which the concentration for half-maximal inhibition (IC50) is 3.6 nM in assay [1] and 36 nM in assay [2].
On the same counts, the results for `CCS(=O)(=O)c1ccc(Oc2cccc(-n3c(C)nc4c(Cl)cccc43)c2)cc1` [Example 49, 4-chloro-1-{3-[4-(ethylsulfonyl)phenoxy]phenyl}-2-methyl-1H-benzimidazole] are 17 nM and 85 nM.
Take `Cc1nc2c(Cl)cccc2n1-c1cccc(Oc2ccccc2S(C)(=O)=O)c1` [Example 50, 4-chloro-2-methyl-1-{3-[2-(methylsulfonyl)phenoxy]phenyl}-1H-benzimidazole]: the results for the half-maximal inhibitory concentration (IC50) in assay [1] and in assay [2] were 170 nM and 746 nM, respectively.
Turning to `Cc1nc2c(Cl)cccc2n1-c1cccc(Oc2cc(S(C)(=O)=O)ccc2Br)c1` [Example 51, 1-{3-[2-bromo-5-(methylsulfonyl)phenoxy]phenyl}-4-chloro-2-methyl-1H-benzimidazole], the concentration for half-maximal inhibition (IC50) turned out to be 100 nM in assay [1] and 646 nM in assay [2].
On the same counts, the results for `Cc1nc2c(Cl)cccc2n1-c1cccc(Oc2ccc(S(C)(=O)=O)cc2F)c1` [Example 52, 4-chloro-1-{3-[2-fluoro-4-(methylsulfonyl)phenoxy]phenyl}-2-methyl-1H-benzimidazole] are 357 nM and 3000 nM.
With `Cc1nc2c(Cl)cccc2n1-c1cccc(Oc2cccc(S(=O)(=O)CCC(C)C)c2)c1` [Example 53], the half-maximal inhibitory concentration (IC50) in assay [1] was 20 nM; in assay [2] it was 258 nM.
On to `CCCS(=O)(=O)c1cccc(Oc2ccc(Cl)c(-n3c(C)nc4c(Cl)cccc43)c2)c1` [Example 56, 4-chloro-1-{2-chloro-5-[3-(propylsulfonyl)phenoxy]phenyl}-2-methyl-1H-benzimidazole], for which the figures for the 50% inhibitory concentration (IC50) in assay [1] and in assay [2] were 164 nM and 2500 nM, respectively.
For `CCS(=O)(=O)c1cc(F)cc(Oc2ccc(Cl)c(-n3c(C)nc4c(Cl)cccc43)c2)c1` [Example 59, 4-chloro-1-{2-chloro-5-[3-(ethylsulfonyl)-5-fluorophenoxy]phenyl}-2-methyl-1H-benzimidazole], the figures for the IC50 in assay [1] and in assay [2] were 432 nM and 2000 nM, respectively.
On the same counts, the results for `Cc1nc2c(Cl)cccc2n1-c1cc(Oc2ccc(S(C)(=O)=O)cc2)ccc1Cl` [Example 61, 4-chloro-1-{2-chloro-5-[4-(methylsulfonyl)phenoxy]phenyl}-2-methyl-1H-benzimidazole] are 357 nM and 3000 nM.
Turning to `CCS(=O)(=O)c1ccc(Oc2ccc(Cl)c(-n3c(C)nc4c(Cl)cccc43)c2)cc1` [Example 62, 4-chloro-1-{2-chloro-5-[4-(ethylsulfonyl)phenoxy]phenyl}-2-methyl-1H-benzimidazole], the IC50 in assay [1] is 65 nM; in assay [2], 812 nM.
On to `Cc1nc2c(Cl)cccc2n1-c1cc(Oc2ccccc2S(C)(=O)=O)ccc1Cl` [Example 63, 4-chloro-1-{2-chloro-5-[2-(methylsulfonyl)phenoxy]phenyl}-2-methyl-1H-benzimidazole], for which the values for the IC50 in assay [1] and in assay [2] were 309 nM and 2500 nM, respectively.
For `Cc1nc2c(C(F)(F)F)cccc2n1-c1ccc(Oc2cccc(S(C)(=O)=O)c2)cc1` [Example 64, 2-methyl-1-{4-[3-(methylsulfonyl)phenoxy]phenyl}-4-(trifluoromethyl)-1H-benzimidazole] the same measures were 1.7 nM and 8.4 nM.
Take `CCc1nc2c(C(F)(F)F)cccc2n1-c1ccc(Oc2cccc(S(=O)(=O)CC)c2)cc1` [Example 68, 2-ethyl-1-{4-[3-(ethylsulfonyl)phenoxy]phenyl}-4-(trifluoromethyl)-1H-benzimidazole]: the IC50 in assay [1] was 1230 nM; in assay [2], above 1000 nM.
On to `CS(=O)(=O)c1cccc(Oc2ccc(-n3c(C(F)(F)F)nc4c(C(F)(F)F)cccc43)cc2)c1` [Example 70, 1-{4-[3-(methylsulfonyl)phenoxy]phenyl}-2,4-bis(trifluoromethyl)-1H-benzimidazole], for which the figures for the IC50 in assay [1] and in assay [2] were 278 nM and 4500 nM, respectively.
For the compound `CS(=O)(=O)c1cc(F)cc(Oc2ccc(-n3c(C(F)(F)F)nc4c(C(F)(F)F)cccc43)cc2)c1` [Example 72, 1-{4-[3-fluoro-5-(methylsulfonyl)phenoxy]phenyl}-2,4-bis(trifluoromethyl)-1H-benzimidazole], the 50% inhibitory concentration (IC50) in assay [1] turned out to be 512 nM; in assay [2], 4700 nM.
On the same counts, the results for `CCS(=O)(=O)c1cccc(Oc2cccc(-n3c(C(F)(F)F)nc4c(C(F)(F)F)cccc43)c2)c1` [Example 77, 1-{3-[3-(ethylsulfonyl)phenoxy]phenyl}-2,4-bis(trifluoromethyl)-1H-benzimidazole] are 198 nM and 2500 nM.
With `CC(C)S(=O)(=O)c1cccc(Oc2cccc(-n3c(C(F)(F)F)nc4c(C(F)(F)F)cccc43)c2)c1` [Example 78, 1-{3-[3-(isopropylsulfonyl)phenoxy]phenyl}-2,4-bis(trifluoromethyl)-1H-benzimidazole], the IC50 in assay [1] was determined as 92 nM; in assay [2], 1370 nM.
For `CS(=O)(=O)c1cccc(COc2ccc(Cl)c(-n3cnc4c(C(F)(F)F)cccc43)c2)c1` [Example 84, 1-(2-chloro-5-{[3-(methylsulfonyl)benzyl]oxy}phenyl)-4-(trifluoromethyl)-1H-benzimidazole] the same measures were 110 nM and 1500 nM.
